The values below come from patent US6548553B2, “Styryl sulfone anticancer agents” (Temple University-of the Commonwealth System of Higher …, priority 1997, dated 2003).

Common to all, as to type: cell-based
For one assay, the system named is DU-145 cells. Kind of assay: Trypan blue exclusion viability assay, prostate tumor cell line. Also on record: unit of the concentration uncertain. As to conditions: 48 hours. As to the method: (§1) The effect of FR-20 on the growth of normal and tumor cells of breast and prostate was examine utilizing nine cell lines: NIH/3T3 and HFL (normal fibroblast cell lines); MCF-7 and 361 ([…] breast tumor cell lines); BT-20, 435 and SKBR-3 ([…] breast tumor cell lines); LnCaP (androgen sensitive prostate tumor cell line); PC-3 and DU-145 (androgen insensitive prostate tumor cell line).
(§2) The cells were grown as in Example 22, A. FR-20 was dissolved in DMSO and added to the cells at 2.5 μM and 5.0 μM concentration. To control cells, DMSO was added equivalent to the volume of solvent (DMSO) present at the highest concentration of the compound. The activity of the compound was evaluated after 48 hours by Trypan blue exclusion. […] Nearly 50% of SKBR-3 and BT-20 cells were dead at 2.5 μM and 75% at 5.0 μM concentration of the compound. […] FRI-20 had profound effect on the viability of androgen-dependent LnCaP prostate tumor cell line when compared to androgen-independent DU-145 and PC-3 prostate cell lines. At […] FRI-20, 80% of LnCaP, 40% of PC-3 and 20% of DU-145 cells were killed. At […] FRI-20, 72% of LnCaP, 47% of PC-3 and 40% of DU-145 were killed (FIG. 3B).

In a further assay the test system is PC-3 cells. The description is as above. Further details: unit of the concentration uncertain. As to conditions: 48 hours. As to the method:
as §1, §2

In assay [1] the test system is LnCaP prostate tumor cell line. Described as above. Also on record: unit of the concentration uncertain. As to conditions: 48 hours. The method, then: as §1, §2
The subject of assay [2] is LnCaP cells. Kind of assay: Cell cycle analysis by propidium iodide flow cytometry (FACS). As to conditions: 2.0 μM; harvested 6, 12, 24 and 48 hours. As to the method:
The androgen-dependent prostate tumor cell line LnCaP was grown as in Ex. 22, A, and treated with 2.0 μM FRI-20 dissolved in DMSO or with equivalent amounts ([…]) of DMSO alone. Cells were harvested 6, 12, 24, and 48 hours following treatment and stained with propidium iodide and subjected to flow cytometry (FACS) for analysis of DNA content.
Background: In flow cytometry, cells or beads pass a laser one at a time.

The subject of assay [3] is LnCaP, BT-20 and MCF-7 cells. Description: Trypan blue exclusion viability/proliferation assay (dose and time course). As to conditions: 2.5 mM (FIG. 1A) and 5.0 mM (FIG. 1B), 48 hours of treatment.
The next assay has as its system ERK-2. Kind of assay: Western blot analysis of treated cell lysates with ERK-2 antibody. As to conditions: 2.5 and 5.0 μM, 48 hours; NIH3T3, LnCaP or MCF-7. As to the method: Cell lysates of FRI-20-treated cells were prepared for Western Blot analysis as follows. NIH3T3, LnCaP or MCF-7 cells were seeded at a density of 2×10^5 cells/per well in a six-well plate and allowed to grow for 24 hours. Fresh medium was added to each well 2 hours before treatment with FRI-20. The compound was dissolved in DMSO to make a 2 mM stock solution and added to the medium (2 ml) to obtain a final concentration of 2.5 and 5.0 μM. After 48 hours at 37° C., the cells were washed twice with 10 ml of ice cold phosphate-buffered saline and harvested in 400 μl of lysis buffer containing 25 mM HEPES (pH 7.6), 0.1% Triton X-100, 300 mM NaCl, 1.5 mM MgCl2, 20 mM β-glycerophosphate, 100 μM Na3VO4, 0.2 mM EDTA, 0.5 mM dithiothreitol, 2 μg/ml aprotinin, 2 μg/ml leupeptin, 100 μM […] and 1 mM benzamidine. The cell lysates were kept on ice for 30 minutes and centrifuged for 10 minutes in a microcentrifuge (16000 X g). The cell lysates were separated from the debris and normalized for protein content.
Western Blot analysis was carried out on the drug- and mock-treated cell lysates with ERK-2 antibody. Equal amounts of total protein (100 μg) were loaded in each lane of a SDS-PAGE gel (10-12%) and transferred to Immobilon-P (Millipore, USA). […] The antibody was detected using the ECL Western blotting analysis kit (Amersham) following the manufacturer's instructions.
Background: In western blotting, separated proteins are transferred to a membrane and probed.

In another assay the test system is SK-MEL-28. Description: GI50 growth inhibition, trypan blue cell count. The settings on record: Homo sapiens, melanoma, 96 hours after addition. As to the method: The human carcinoma cell lines listed in Table 5 below were purchased from ATCC and grown in an appropriate growth medium containing 10% fetal bovine serum (FBS) and antibiotics. The cells were plated at a cell density of 1.0×10^5 cells per […] in 6-well dishes. The cells were treated with various concentrations of (E)-fluorostyryl-4-bromobenzylsulfone 24 hours after plating in a total volume of 1 ml of medium using dimethylsulfoxide (DMSO) as a solvent for the compound. Control cells were treated with DMSO alone. The total number of viable cells was determined 96 hours after the addition of the compound by counting the cells in each well using a hemacytometer after trypan blue staining (viable cells exclude the stain). The counts were done in duplicate and the average was graphed in FIG. 8 as a percentage of the non-treated control group.

The next assay has as its system DU145 cells. Description: Comparison with cisplatin, Trypan blue viability after 72 hours. As to conditions: DU145, 72 hours, Trypan blue exclusion. As to the method:
(§3) The killing effect of FR-20 on androgen-sensitive (LnCaP) and androgen insensitive (DU145) prostate tumor cells was compared to the effect of cisplatin (cis-diamminedichloroplatinum II), a widely used anti-prostate cancer agent. The cells were grown as in Example 26. FRI-20 or cisplatin was dissolved in DMSO and added to the cells at various concentrations. Viability was determined after 72 hours by the Trypan blue exclusion method. The concentration of FRI-20 required to completely kill LnCaP and DU145 cells was 2.5 μM and 5.0 μM, respectively. Under identical conditions, complete killing of LnCaP and DU145 cells by cisplatin required 25 μM and 15 μM concentrations, respectively.

For assay [4], the system named is LnCaP cells. The description is as above. The method, then:
as §3

For `O=S(=O)(/C=C/c1ccc(F)cc1)Cc1ccc(Cl)cc1` [Example 11, E-4-fluorostyryl 4-chlorobenzyl Sulfone], the cells killed amounted to 20% with DU-145 cells (2.5 µM); 40% with DU-145 cells (5.0 µM); 40% in the assay with PC-3 cells (2.5 µM); 47% with PC-3 cells (5.0 µM); 80% in [1] (2.5 µM); 72% in assay [1] (5.0 µM). Also, in the assay on LnCaP cells [2], the “effect on cell cycle (DNA content)” value is on record as “accumulation of cells in the G2/M phase of the cell cycle”. Further, in [3], the “inhibition of growth and induction of death of LnCaP, BT-20 and MCF-7 cells” value is “substantially inhibit the growth and induce the death”. In the assay with ERK-2, the “amount of ERK-2 protein in drug- and mock-treated lysates” value is reported as “the same amount of protein in both lysates”. Besides, in the assay on SK-MEL-28, the GI50 – broadly, the concentration that inhibits growth by half – was 2000 nM. The “concentration required to completely kill cells” value turned out to be 5.0 µM with DU145 cells and 2.5 µM with LnCaP cells [4] (LnCaP, 72 hours, Trypan blue exclusion). For the same compound, the “activity relative to cisplatin in killing prostate tumor cells” value with LnCaP cells [4] (both LnCaP and DU145, 72 hours) was “at least tenfold more active than cisplatin”.
